Experimental data taken from ChEMBL document CHEMBL4725233, “Anti-inflammatory principles from Lindera aggregata” (Bioorg Med Chem Lett, 2020).

How the values were obtained:
Neutrophil [1] = experiment: Antiinflammatory activity in human neutrophils assessed as inhibition of fMLF/cytochalasin B-induced superoxide anion generation preincubated for 5 mins followed by fMLF addition after priming with CB for 3 mins by spectrophotometric analysis; type: functional, cell-based
Neutrophil [2] = experiment: Antiinflammatory activity in human neutrophils assessed as inhibition of fMLF/cytochalasin B-induced superoxide anion generation at 10 uM preincubated for 5 mins followed by fMLF addition after priming with CB for 3 mins by spectrophotometric analysis relative to control; type: functional

| Structure (SMILES) | IC50 (Neutrophil [1]) | inhibition at 10 µM (Neutrophil [2]) |
| --- | --- | --- |
| O=c1c(-c2ccc(O)cc2)coc2cc(O)cc(O)c12 [GENISTEIN] | 1.11 µM |  |
| C=C1O[C@@H]2[C@@H](OC(C)=O)C3=C(C)C(=O)OC3=C[C@@]2(C)[C@@H]2C[C@H]12 | 7.45 µM | > 50% |
| COc1cc2c(cc1O)C[C@H]1c3c(cc(OC)c(O)c3-2)CCN1C [ISOBOLDINE] | 5.81 µM | > 50% |
| COc1cc2c(cc1O)C[C@H]1c3c(cc(OC)c(OC)c3-2)CCN1C | 8.36 µM | > 50% |
